From US9375421B2, “Pharmaceutical intervention for treating an apraxia of speech in children” (Gilrose Pharmaceuticals, LLC, priority 2011, dated 2016)

How the values were obtained:
[1] = tested on: children with apraxia of speech; experiment: Speech and language assessment of children with apraxia of speech before and after a psychostimulant dose (case examples); assay type: in vivo, human
Excerpt: Assessment of the verbal ability of a subject can include but is not limited to measures of all the domains described herein: nonspeech oral-motor, speech production, prosody, voice, speech perception, language, and, for older children, linguistic/literacy skills. Of these, (a) inconsistent errors on consonants and vowels in repeated productions of syllables or words, (b) lengthened and disrupted coarticulatory transitions between sounds and syllables, (c) inappropriate prosody, especially in the realization of lexical or phrasal stress; (d) the inability to see a new word and to have the ability to identify and sequence in time and space the sounds not only by themselves but in relationship to one another to be able to produce to transform from a symbol, orthographic to sound representation but to do it according to the rules of language knowing where to divide the written symbols into units; (e) the inability to not only transform into sounds, but sounds in relationship in terms of speed and volume to have that word in the context have that meaning that the author of the written word wanted to convey. The cultural and linguistic background of each subject may optionally be assessed.
When treating a child who is incapable of communication, the child is tested with respect to language skills as well as visual-spatial comprehension skills. For example, a child may be asked to pronounce a few single syllable words, such as “ma, ma” “ba, ba” or to described a picture or read a few words. At the same time, the child's body motions and emotional interactions with other people are observed.
For example, an improvement in a subject may include but is not limited to, an increase in the number of correct phonemes when speaking, a more normal time spent enunciating words, the number of times the last consonant of a word is used correctly, the proper sequencing of words and events, appropriate sound intensity.
Depending where the patient is on the apraxia pyramid, for example vocalization, words, prosody, the number of words in the sentence, the number or types of words in the sentence, the grammar syntax, prosody, measuring the child to his/her previous ability 20-30 minutes ago in addition to medication.

[2] = tested on: children with good nonverbal development not functioning well with reading and language skills; experiment: Three minute reading test before and after administering the medicine (FIG. 2 and FIG. 3); assay type: in vivo, human; conditions: most of the nine children; 5 mg; pre- versus after administering
Procedure: FIG. 2 is a comparison of the reading abilities of a group of children with a various diagnosed symptoms between pre-treatment and after-treatment with one dosage of 5-7.5 mg of methylphenidate.
FIG. 3 is a comparison of the reading abilities of another group of children with a various diagnosed symptoms between pre-treatment and after-treatment with one dosage of 5-7.5 mg of methylphenidate.
Metrics for quantitative assessment of the language ability include words per minute, three minute reading test, sentence complexity such as length in words, complexity of construction, etc. The number of correctly read syllables minuses the number of mistakes divided by the months of reading training may be used to assess the language ability development.
In reference to FIG. 2 and FIG. 3. […] They were tested for three minute reading before and after administering the medicine. The mistakes in pronouncing syllables were counted. The correct pronunciation ratios (divided by the total number of syllables read) were compared between the pre-administering the drug and after administering the drug. […] Most of them had least 40% improvement.

SMILES | speech and language (Example 9A, fifth visit) ([1]; Participant 9A, 10 mg/day after the methylphenidate regimen, about two weeks later) | speech and comprehension (Example 9B) ([1]; Participant 9B, same regimen as 9A (methylphenidate 5 then 10 mg/day, then Focalin 10 mg/day)) | speech ability after dose (Example 1) ([1]; 11 year autistic boy, 10 mg tablets, thirty minutes after dose) | speech improvement (Example 9A, third visit) ([1]; Participant 9A, 5 mg/day, after a month) | comprehension (Example 9A, fourth visit) ([1]; Participant 9A, 10 mg/day, about a month later) | reading ability after dose (Example 5) ([1]; child with dyslexia, 10 mg, half an hour later) | speech ability after dose (Example 7) ([1]; child, chromosome 15 duplication, 2.5 mg, thirty minutes later) | speech and motor ability after dose (Example 8) ([1]; child, 5 mg, after 30 minutes) | speech ability after dose (Example 2) ([1]; child, one dosage of 5 mg, half an hour later) | follow up on speech after repeated dosing (Example 7) ([1]; same child, 2.5 mg a day for two to three months) | improvement of correct pronunciation ratio, three minute reading [2] [%]
COC(=O)[C@H](c1ccccc1)[C@H]1CCCCN1 [Focalin®, dextro-threo-methylphenidate] | able to answer questions about their daily life in clear speech and language | an improvement in speech and comprehension | – | – | – | – | – | – | – | – | –
COC(=O)C(c1ccccc1)C1CCCCN1 (centres unmarked) [methylphenidate] | – | – | able to imitate “ma ma ma” | no significant improvement in speech | able to understand the story line of a children's book | able to read a sentence with smooth pronunciations | able to make sounds of “ma mi”, mimic “bye”, “bye” and babble with sounds | able to repeat two syllable words | able to follow instructions to mimic the sounds “ma” “ma” “ga” “ga” | good progress in speaking sounds | ≥ 40
